Reference: PubChem BioAssay (NCI)
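Briefly, cells in 96-well plates were exposed to five compound concentrations for 48 h, and endpoints were estimated by linear interpolation. GI50 marks 50% less growth. TGI marks complete inhibition of growth.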

Key:
Test in all cases: NCI tumour cell line growth inhibition, 48 h
SNB-78 CNS = system: SNB-78 CNS
M19-MEL melanoma = system: M19-MEL melanoma
DLD-1 colon = system: DLD-1 colon
DMS 114 small cell lung = system: DMS 114 small cell lung
KM20L2 colon = system: KM20L2 colon
LXFL 529 NSCLC = system: LXFL 529 NSCLC
RXF-631 renal = system: RXF-631 renal
HOP-18 NSCLC = system: HOP-18 NSCLC
MDA-N = system: MDA-N
P388 leukemia = system: P388 leukemia
P388/ADR leukemia = system: P388/ADR leukemia
SN12K1 renal = system: SN12K1 renal

C/C(CC(=O)Nc1cccc(Cl)c1C)=N\NC(=O)c1ccncc1 showed a TGI (SNB-78 CNS) of over 100 µM, a TGI (M19-MEL melanoma) of over 100 µM and a TGI (DLD-1 colon) of over 100 µM. For the same compound, the TGI (DMS 114 small cell lung) was over 100 µM, the TGI (KM20L2 colon) was over 100 µM and the TGI (LXFL 529 NSCLC) was over 100 µM.
In the case of CC(=O)O[C@H]1CCC2[C@@H]3CCC4Nc5[nH]ncc5C[C@]4(C)C3CC[C@@]21C (some centres undefined), the TGI (M19-MEL melanoma) was over 100 µM, the TGI (RXF-631 renal) was over 100 µM and the TGI (HOP-18 NSCLC) was over 100 µM. For the same compound, the TGI (DMS 114 small cell lung) was over 100 µM, the TGI (KM20L2 colon) was over 100 µM and the TGI (LXFL 529 NSCLC) was over 100 µM.
For O=S(=O)(c1ccccc1)C1CN2OC1(S(=O)(=O)c1ccccc1)CC2c1ccc(Br)cc1 (centres undefined), the TGI (M19-MEL melanoma) was over 100 µM, the TGI (DLD-1 colon) was over 100 µM and the TGI (RXF-631 renal) was over 100 µM. The TGI (DMS 114 small cell lung) was over 100 µM and the TGI (KM20L2 colon) was over 100 µM.
Compound CC(=O)Oc1ccccc1C(=O)Nc1ncc([N+](=O)[O-])s1 has a TGI (MDA-N) of over 90.1 µM.
N#CC(C(=O)C(=O)Nc1ccc(Cl)cc1)c1ccccc1 (centres undefined) was tested, and the TGI (SNB-78 CNS) was over 100 µM, the TGI (M19-MEL melanoma) was over 100 µM and the TGI (DLD-1 colon) was over 100 µM. For the same compound, the TGI (RXF-631 renal) was over 100 µM, the TGI (HOP-18 NSCLC) was over 100 µM and the TGI (DMS 114 small cell lung) was over 100 µM. The TGI (KM20L2 colon) was over 100 µM and the TGI (LXFL 529 NSCLC) was over 100 µM.
For O=[N+]([O-])c1ccc(N2N=C(c3ccc(NCc4nc5ccccc5[nH]4)cc3)CC2c2ccco2)cc1 (centres undefined), the TGI (M19-MEL melanoma) was over 100 µM, the TGI (DLD-1 colon) was over 100 µM and the TGI (HOP-18 NSCLC) was over 100 µM. The TGI (DMS 114 small cell lung) was 50.9 µM and the TGI (LXFL 529 NSCLC) was 38.5 µM.
CC(C)C(=O)NS(=O)(=O)c1ccccc1 was tested, and the TGI (SNB-78 CNS) was over 100 µM, the TGI (M19-MEL melanoma) was over 100 µM and the TGI (DLD-1 colon) was over 100 µM. The TGI (RXF-631 renal) was over 100 µM, the TGI (HOP-18 NSCLC) was over 100 µM and the TGI (DMS 114 small cell lung) was over 100 µM. The TGI (KM20L2 colon) was over 100 µM and the TGI (LXFL 529 NSCLC) was over 100 µM.
For O=C(O)CC(NC(=O)CP(=O)(O)O)C(=O)O (centres undefined), the TGI (SNB-78 CNS) was over 10000 µM, the TGI (M19-MEL melanoma) was over 10000 µM and the TGI (DLD-1 colon) was 9920 µM. For the same compound, the GI50 (MDA-N) was 54.1 µM, the TGI (MDA-N) was over 10000 µM and the TGI (P388 leukemia) was over 5860 µM. The TGI (P388/ADR leukemia) was over 8350 µM, the TGI (HOP-18 NSCLC) was over 9690 µM and the TGI (DMS 114 small cell lung) was over 10000 µM. For the same compound, the TGI (SN12K1 renal) was over 10000 µM and the TGI (KM20L2 colon) was over 10000 µM.
CN[C@@H](C)[C@@H](NC)c1ccccc1 showed a TGI (SNB-78 CNS) of over 100 µM, a TGI (M19-MEL melanoma) of over 100 µM and a TGI (DLD-1 colon) of over 100 µM. The TGI (RXF-631 renal) was over 100 µM, the TGI (HOP-18 NSCLC) was over 100 µM and the TGI (DMS 114 small cell lung) was over 100 µM. It also gave a TGI (LXFL 529 NSCLC) of over 100 µM.
With COc1ccc(-c2coc3c4c(ccc3c2=O)OCO4)cc1OC the TGI (MDA-N) was over 100 µM.
CCn1sc2ccccc2c1=O gave a TGI (MDA-N) of 8.99 µM.
O=C(O)c1ccc(OCc2ccccc2)c(Cl)c1 gave a TGI (MDA-N) of over 100 µM.
COC(=O)/C=C/c1c(CC=C(C)C)ncn1C showed a TGI (SNB-78 CNS) of over 100 µM, a TGI (M19-MEL melanoma) of over 100 µM and a TGI (DLD-1 colon) of over 100 µM. It also gave a TGI (RXF-631 renal) of over 100 µM, a TGI (HOP-18 NSCLC) of over 100 µM and a TGI (DMS 114 small cell lung) of over 100 µM. The TGI (KM20L2 colon) was over 65.8 µM and the TGI (LXFL 529 NSCLC) was over 100 µM.
In the case of Cc1cc(NS(=O)(=O)c2ccc(Nc3c4ccccc4nc4c(C(=O)N5CCN(CCO)CC5)ccc(Cl)c34)cc2)no1, the TGI (M19-MEL melanoma) was over 100 µM, the TGI (DLD-1 colon) was over 100 µM and the TGI (RXF-631 renal) was over 100 µM. The TGI (DMS 114 small cell lung) was over 100 µM and the TGI (KM20L2 colon) was over 100 µM.
Compound S=c1[nH]c(=S)c2nnn(-c3ccccc3)c2[nH]1 has a TGI (M19-MEL melanoma) of over 100 µM, a TGI (DLD-1 colon) of over 100 µM and a TGI (DMS 114 small cell lung) of over 100 µM. It also gave a TGI (KM20L2 colon) of over 100 µM and a TGI (LXFL 529 NSCLC) of over 100 µM.
O=CN1CCN(CC(O)CN2CCCCC2)CC1 (centres undefined) was tested, and the TGI (MDA-N) was over 100 µM.
For CC(C)N(CCn1c2c3ccccc3ccc2c2oc(=O)c3ccccc3c21)C(C)C, the TGI (SNB-78 CNS) was over 100 µM, the TGI (M19-MEL melanoma) was over 100 µM and the TGI (DLD-1 colon) was over 100 µM. It also gave a TGI (RXF-631 renal) of over 100 µM, a TGI (HOP-18 NSCLC) of over 86.6 µM and a TGI (DMS 114 small cell lung) of over 100 µM. The TGI (KM20L2 colon) was over 100 µM and the TGI (LXFL 529 NSCLC) was over 100 µM.
CC(C)C(=O)Nc1nc2c(ncn2C2OC(CO)C(O)C2O)c(=O)[nH]1 (centres undefined) was tested, and the TGI (SNB-78 CNS) was over 100 µM, the TGI (M19-MEL melanoma) was over 100 µM and the TGI (DLD-1 colon) was over 100 µM. The TGI (RXF-631 renal) was over 100 µM, the TGI (HOP-18 NSCLC) was over 100 µM and the TGI (DMS 114 small cell lung) was over 100 µM. It also gave a TGI (KM20L2 colon) of over 100 µM and a TGI (LXFL 529 NSCLC) of over 100 µM.
CC(=O)[O][Ga]([Br])[O]C(C)=O was tested, and the GI50 (SNB-78 CNS) was over 100 µM, the TGI (SNB-78 CNS) was over 100 µM and the GI50 (M19-MEL melanoma) was over 100 µM. It also gave a TGI (M19-MEL melanoma) of over 100 µM, a GI50 (DLD-1 colon) of over 100 µM and a TGI (DLD-1 colon) of over 100 µM. It also gave a GI50 (HOP-18 NSCLC) of over 100 µM, a TGI (HOP-18 NSCLC) of over 100 µM and a GI50 (KM20L2 colon) of over 100 µM. For the same compound, the TGI (KM20L2 colon) was over 100 µM, the GI50 (LXFL 529 NSCLC) was over 100 µM and the TGI (LXFL 529 NSCLC) was over 100 µM.
Compound COC(=O)/C=C1\CCC(C)O1 (centres undefined) has a TGI (SNB-78 CNS) of over 100 µM, a TGI (M19-MEL melanoma) of over 100 µM and a TGI (DLD-1 colon) of over 100 µM. The TGI (RXF-631 renal) was over 100 µM, the TGI (DMS 114 small cell lung) was over 100 µM and the TGI (KM20L2 colon) was over 100 µM. It also gave a TGI (LXFL 529 NSCLC) of over 100 µM.
